From patent US20010007152A1, “RECOMBINANT CONSTRUCTS ENCODING T CELL RECEPTORS SPECIFIC FOR HUMAN HLA-RESTRICTED TUMOR ANTIGENS” (priority 1996, published 2001)

Experiments:
HLA A2.1 = biological target: T1, HLA A2.1 (UniProt P01901+P04439, D140Y/D185E/D98H/E176V/G131W/I119V/I121R/I166T/N151K/N90K/Q86G/Q94H/R138H/R169H); assay: Competition assay: inhibition of influenza matrix peptide M1 (58-66) binding to A2.1, read as inhibition of lysis by an M1-specific CTL clone; design: species or system human; conditions: test peptide 10 μg vs influenza matrix peptide 0.1 μg; T2-A2.1/K^b target cells
T1 construct: expressed in transfected cells; host or cells: T2-A2.1/K^b cells
Experimental: Briefly, each test peptide (10 μg) was incubated with radiolabeled target cells (T2-A2.1/K^b, 10^6 target cells labeled with […] ^51Cr at 37° for 1.5 hours) in the presence of an influenza virus matrix protein (0.1 μg). The ability of these peptides to inhibit the binding of the influenza matrix protein peptide MI (58-66) to A2.1 was measured by inhibition of lysis by an M1 (58-66) specific, A2.1 restricted CTL clone.

SAOS.175 = assay: Lysis of tumor cells by peptide-specific CTL; format: cell-based, human; conditions: 6 hours; for Killing of tumor (lysis): SAOS.175, osteosarcoma, A2 +, Her-2 +, no cytokine preincubation; for Killing of tumor (lysis) + CYT: SAOS.175, tumor preincubated 24 hours with 20 ng/ml γ-IFN and 3 ng/ml TNF-α
SW480 = assay: Lysis of tumor cells by peptide-specific CTL; format: cell-based, human; conditions: 6 hours; for Killing of tumor (lysis): SW480, colon, A2 +, Her-2 +, no cytokine preincubation; for Killing of tumor (lysis) + CYT: SW480, tumor preincubated 24 hours with 20 ng/ml γ-IFN and 3 ng/ml TNF-α
MCF-7 = assay: Lysis of tumor cells by peptide-specific CTL; format: cell-based, human; conditions: 6 hours; for Killing of tumor (lysis): MCF-7, breast, A2 +, Her-2 +, no cytokine preincubation; for Killing of tumor (lysis) + CYT: MCF-7, tumor preincubated 24 hours with 20 ng/ml γ-IFN and 3 ng/ml TNF-α
OVCAR-5 = assay: Lysis of tumor cells by peptide-specific CTL; format: cell-based, human; conditions: 6 hours; for Killing of tumor (lysis): OVCAR-5, ovarian, A2 +, Her-2 +, no cytokine preincubation; for Killing of tumor (lysis) + CYT: OVCAR-5, tumor preincubated 24 hours with 20 ng/ml γ-IFN and 3 ng/ml TNF-α
T98G = assay: Lysis of tumor cells by peptide-specific CTL; format: cell-based, human; conditions: 6 hours; for Killing of tumor (lysis) + CYT: tumor preincubated 24 hours with 20 ng/ml γ-IFN and 3 ng/ml TNF-α; for Killing of tumor (lysis): glioblastoma, A2 +, Her-2 +, no cytokine preincubation
SV80 = assay: Lysis of tumor cells by peptide-specific CTL; format: cell-based, human; conditions: 6 hours; for Killing of tumor (lysis): SV80, fibroblast, A2 +, Her-2 −, no cytokine preincubation; for Killing of tumor (lysis) + CYT: SV80, tumor preincubated 24 hours with 20 ng/ml γ-IFN and 3 ng/ml TNF-α
U2-OS = assay: Lysis of tumor cells by peptide-specific CTL; format: cell-based, human; conditions: 6 hours; for Killing of tumor (lysis) + CYT: tumor preincubated 24 hours with 20 ng/ml γ-IFN and 3 ng/ml TNF-α; for Killing of tumor (lysis): osteosarcoma, A2 +, Her-2 +, no cytokine preincubation
MALME-3M = assay: Lysis of tumor cells by peptide-specific CTL; format: cell-based, human; conditions: 6 hours; for Killing of tumor (lysis) + CYT: tumor preincubated 24 hours with 20 ng/ml γ-IFN and 3 ng/ml TNF-α; for Killing of tumor (lysis): melanoma, A2 +, Her-2 +, no cytokine preincubation
MDA.MB435 = assay: Lysis of tumor cells by peptide-specific CTL; format: cell-based, human; conditions: 6 hours; for Killing of tumor (lysis): MDA.MB435, breast, A2 −, Her-2 +, no cytokine preincubation; for Killing of tumor (lysis) + CYT: MDA.MB435, tumor preincubated 24 hours with 20 ng/ml γ-IFN and 3 ng/ml TNF-α
CASKI = assay: Lysis of tumor cells by peptide-specific CTL; format: cell-based, human; conditions: 6 hours; for Killing of tumor (lysis) + CYT: tumor preincubated 24 hours with 20 ng/ml γ-IFN and 3 ng/ml TNF-α; for Killing of tumor (lysis): cervix, A2 +, Her-2 +, no cytokine preincubation
ST486 = assay: Lysis of tumor cells by peptide-specific CTL; format: cell-based, human; conditions: 6 hours; for Killing of tumor (lysis): ST486, lymphoma, A2 +, Her-2 −, no cytokine preincubation; for Killing of tumor (lysis) + CYT: ST486, tumor preincubated 24 hours with 20 ng/ml γ-IFN and 3 ng/ml TNF-α
JY = assay: Lysis of tumor cells by peptide-specific CTL; format: cell-based, human; conditions: 6 hours; for Killing of tumor (lysis) + CYT: tumor preincubated 24 hours with 20 ng/ml γ-IFN and 3 ng/ml TNF-α; for Killing of tumor (lysis): lymphoma, A2 +, Her-2 −, no cytokine preincubation
LG-2 = assay: Lysis of tumor cells by peptide-specific CTL; format: cell-based, human; conditions: 6 hours; for Killing of tumor (lysis): LG-2, EBV-trans., A2 +, Her-2 −, no cytokine preincubation; for Killing of tumor (lysis) + CYT: LG-2, tumor preincubated 24 hours with 20 ng/ml γ-IFN and 3 ng/ml TNF-α
Hep-G2 = assay: Lysis of tumor cells by peptide-specific CTL; format: cell-based, human; conditions: 6 hours; for Killing of tumor (lysis): Hep-G2, hepatoma, A2 +, Her-2 +, no cytokine preincubation; for Killing of tumor (lysis) + CYT: Hep-G2, tumor preincubated 24 hours with 20 ng/ml γ-IFN and 3 ng/ml TNF-α
BT549 = assay: Lysis of tumor cells by peptide-specific CTL; format: cell-based, human; conditions: 6 hours; for Killing of tumor (lysis): BT549, breast, A2 +, Her-2 +, no cytokine preincubation; for Killing of tumor (lysis) + CYT: BT549, tumor preincubated 24 hours with 20 ng/ml γ-IFN and 3 ng/ml TNF-α
U87G = assay: Lysis of tumor cells by peptide-specific CTL; format: cell-based, human; conditions: 6 hours; for Killing of tumor (lysis) + CYT: tumor preincubated 24 hours with 20 ng/ml γ-IFN and 3 ng/ml TNF-α; for Killing of tumor (lysis): glioblastoma, A2 +, Her-2 −, no cytokine preincubation
MDA.MB231 = assay: Lysis of tumor cells by peptide-specific CTL; format: cell-based, human; conditions: 6 hours; for Killing of tumor (lysis): MDA.MB231, breast, A2 +, Her-2 +, no cytokine preincubation; for Killing of tumor (lysis) + CYT: MDA.MB231, tumor preincubated 24 hours with 20 ng/ml γ-IFN and 3 ng/ml TNF-α
SKMEL-5 = assay: Lysis of tumor cells by peptide-specific CTL; format: cell-based, human; conditions: 6 hours; for Killing of tumor (lysis): SKMEL-5, melanoma, A2 +, Her-2 +, no cytokine preincubation; for Killing of tumor (lysis) + CYT: SKMEL-5, tumor preincubated 24 hours with 20 ng/ml γ-IFN and 3 ng/ml TNF-α
NCl.H1355 = assay: Lysis of tumor cells by peptide-specific CTL; format: cell-based, human; conditions: 6 hours; for Killing of tumor (lysis): NCl.H1355, lung, A2 +, Her-2 +, no cytokine preincubation; for Killing of tumor (lysis) + CYT: NCl.H1355, tumor preincubated 24 hours with 20 ng/ml γ-IFN and 3 ng/ml TNF-α

## DLLEKGERL [H19, Her-2/neu peptide 933-941]
HLA A2.1
  % INHIBITION: 36%

## LVSEFSRMA [H22, Her-2/neu peptide 972-980]
HLA A2.1
  % INHIBITION: 14%

## VLQGLPREYV [H8, Her-2/neu peptide 546-555]
HLA A2.1
  % INHIBITION: 43%

## TLQGLGISWL [H6, Her-2/neu peptide 444-453]
HLA A2.1
  % INHIBITION: 56%

## HLYQGOQW [H12]
HLA A2.1
  % INHIBITION: 15%

## DIDETEYHA [H18, Her-2/neu peptide 871-879]
HLA A2.1
  % INHIBITION: 37%

## ELVSEFSRM [H20, Her-2/neu peptide 971-979]
HLA A2.1
  % INHIBITION: 5%

## DLVDAEEYL [H23, Her-2/neu peptide 1016-1024]
HLA A2.1
  % INHIBITION: 35%

## TLSPGKNGV [H24, Her-2/neu peptide 1172-1180]
HLA A2.1
  % INHIBITION: 57%

## KLVGKLNWA [HIV-9K, HIV POL peptide, known to be immunogenic, used as a control, reference compound]
SAOS.175
  Killing of tumor (lysis): 18%
  Killing of tumor (lysis) + CYT: 11
SW480
  Killing of tumor (lysis): 1%
  Killing of tumor (lysis) + CYT: 4
MCF-7
  Killing of tumor (lysis): 3%
  Killing of tumor (lysis) + CYT: 7
OVCAR-5
  Killing of tumor (lysis): 10%
  Killing of tumor (lysis) + CYT: 12
T98G
  Killing of tumor (lysis) + CYT: 13
  Killing of tumor (lysis): 9%
SV80
  Killing of tumor (lysis): 2%
  Killing of tumor (lysis) + CYT: 2
U2-OS
  Killing of tumor (lysis) + CYT: 24
  Killing of tumor (lysis): 18%
MALME-3M
  Killing of tumor (lysis) + CYT: 1
  Killing of tumor (lysis): 2%
MDA.MB435
  Killing of tumor (lysis): 4%
  Killing of tumor (lysis) + CYT: 3
CASKI
  Killing of tumor (lysis) + CYT: 11
  Killing of tumor (lysis): 8%
ST486
  Killing of tumor (lysis): 1%
  Killing of tumor (lysis) + CYT: 1
JY
  Killing of tumor (lysis) + CYT: 1
  Killing of tumor (lysis): 2%
LG-2
  Killing of tumor (lysis): 1%
  Killing of tumor (lysis) + CYT: 1
Hep-G2
  Killing of tumor (lysis): 1%
  Killing of tumor (lysis) + CYT: 8
BT549
  Killing of tumor (lysis): 2%
  Killing of tumor (lysis) + CYT: 15
U87G
  Killing of tumor (lysis) + CYT: 1
  Killing of tumor (lysis): 5%
MDA.MB231
  Killing of tumor (lysis): 3%
  Killing of tumor (lysis) + CYT: 14
SKMEL-5
  Killing of tumor (lysis): 5%
  Killing of tumor (lysis) + CYT: 4
NCl.H1355
  Killing of tumor (lysis): 7%
  Killing of tumor (lysis) + CYT: 25

## QLMPYGCLL [H16, Her-2/neu peptide 799-807]
HLA A2.1
  % INHIBITION: 50%

## KIPVAIKVL [H14, Her-2/neu peptide 747-755]
HLA A2.1
  % INHIBITION: 35%

## ELVSEFSRMA [H21, Her-2/neu peptide 971-980]
HLA A2.1
  % INHIBITION: 25%

## VMAGVGSPYV [H7]
SAOS.175
  Killing of tumor (lysis): 27%
  Killing of tumor (lysis) + CYT: 35
SW480
  Killing of tumor (lysis): 2%
  Killing of tumor (lysis) + CYT: 17
MCF-7
  Killing of tumor (lysis): 7%
  Killing of tumor (lysis) + CYT: 40
OVCAR-5
  Killing of tumor (lysis): 13%
  Killing of tumor (lysis) + CYT: 23
T98G
  Killing of tumor (lysis) + CYT: 93
  Killing of tumor (lysis): 29%
SV80
  Killing of tumor (lysis): 2%
  Killing of tumor (lysis) + CYT: 2
U2-OS
  Killing of tumor (lysis) + CYT: 62
  Killing of tumor (lysis): 30%
MALME-3M
  Killing of tumor (lysis) + CYT: 14
  Killing of tumor (lysis): 4%
MDA.MB435
  Killing of tumor (lysis): 1%
  Killing of tumor (lysis) + CYT: 1
CASKI
  Killing of tumor (lysis) + CYT: 20
  Killing of tumor (lysis): 9%
ST486
  Killing of tumor (lysis): 5%
  Killing of tumor (lysis) + CYT: 8
JY
  Killing of tumor (lysis) + CYT: 2
  Killing of tumor (lysis): 4%
LG-2
  Killing of tumor (lysis): 1%
  Killing of tumor (lysis) + CYT: 3
Hep-G2
  Killing of tumor (lysis): 4%
  Killing of tumor (lysis) + CYT: 29
BT549
  Killing of tumor (lysis): 2%
  Killing of tumor (lysis) + CYT: 36
U87G
  Killing of tumor (lysis) + CYT: 1
  Killing of tumor (lysis): 1%
MDA.MB231
  Killing of tumor (lysis): 26%
  Killing of tumor (lysis) + CYT: 89
HLA A2.1
  % INHIBITION: 55%
SKMEL-5
  Killing of tumor (lysis): 16%
  Killing of tumor (lysis) + CYT: 40
NCl.H1355
  Killing of tumor (lysis): 13%
  Killing of tumor (lysis) + CYT: 62

## VLVKSPNHV [H17, Her-2/neu peptide 851-859]
HLA A2.1
  % INHIBITION: 12%

## RLLQETELV [H13]
HLA A2.1
  % INHIBITION: 56%
